{"source": "patent US20240108734A1", "about": "“METHODS FOR TREATING AND AMELIORATING CANCER” (The Regents of the University of California, priority 2021, published 2024)", "assay_type_in_all_cases": "in vivo", "key": {"[1]": {"assay": "Tolerability (change in percent body weight) in xenograft models", "conditions": "mice transplanted with CB, BC CML or MF progenitors", "source_text": "FIG. 8A graphically illustrates data showing the change in percent body weight in mice transplanted with cord blood (CB) treated with vehicle (black), mismatch control (blue) or imetelstat (red);\nFIG. 8B graphically illustrates data showing the change in percent body weight in mice transplanted with BC CML treated with vehicle (black), mismatch control (blue) or imetelstat (red);\nFIG. 8C graphically illustrates data showing the change in percent body weight in mice transplanted with myelofibrosis (MF) progenitors treated with vehicle (black), mismatch control (blue) or imetelstat (red);"}, "TERT": {"test_system": "TERT", "assay": "RNA-seq of human CD45+ cells from treated BC CML mice", "conditions": "surviving human CD45+ cells; imetelstat compared with vehicle; p<0.01", "procedure": "For gene expression and RNA editing analysis, RNA editing sites were identified in REDIportal^34 (see the Supplementary Appendix). […] Gene Set Enrichment Analysis was performed with the Bioconductor package GSVA (see the Supplementary Appendix)^36. For in vitro and in vivo experiments, the Student's t-test was utilized to evaluate statistical significance of normally distributed data and Wilcoxon tests were utilized for non-normally distributed data with a p value of <0.05.\nFastQC (Andrews, S. & Others. FastQC: a quality control tool for high throughput sequence data. (2010) was used to perform quality control on raw fastq files. Sequencing reads were aligned to the human genome (hg19) using the STAR v2.5.1a aligner^19. RSEM^20 v1.3.0 and GENCODE annotation (genocode.v19.annotation.gtf) were used for read and transcript quantification, and R BioConductor packages edgeR^21 and Limma^22 were used to implement the limma-voom^23 method for differential expression analysis at both the gene and transcript levels. The experimental design was modeled upon disease and tissue type (˜0+disease; ˜0+tissue; ˜0+disease+tissue). Significance was defined by using an adjusted p-value cut-off of 0.05 after multiple testing correction using a moderated t-statistic in Limma. […] Gene Set Enrichment Analysis was performed with the Bioconductor package GSVA^25.\nFIG. 5C. […]"}, "[2]": {"test_system": "MF CD34+ cells engrafted in NSG-SGM3 mice", "assay": "Humanized MF MPN-SPC (pre-LSC) mouse model", "source_text": "Human CD34^+ cells isolated from MF and BC CML samples (Table S2, illustrated as FIG. 11) were transplanted intravenously into adult NSG-SGM3 (expressing human IL-3, GM-CSF and SCF) mice following 300 cGy of irradiation or intrahepatically into neonatal RAG2^−/− yc^−/− mice, respectively^27,32.\nHuman CD34^+ cells isolated from MF and BC CML (Table S2) samples were transplanted intravenously into adult NSG-SGM3 (expressing human IL-3, GM-CSF and SCF) mice following\n300 cGy of irradiation or intrahepatically into newborn RAG2^−/−[…]c^−/− mice^28,32,34. Post-transplantation (13 to 16 weeks), bone marrow and spleen were collected and analyzed by FACS^32. Mice were treated with vehicle, mismatch or imetelstat at varying doses. Also, MF CD34^+ cells were transduced with pCDH lentivirus control or ADAR1-OE lentivirus with a MOI of 100 for 48 hours, followed by intravenous transplantation into NSG-SGM3 mice to assess the impact of ADAR1 overexpression on MF engraftment.\nFIG. 4A. A schema of humanized BC CML LSC and MF SPC mouse models. Human CD34^+ cells sorted from either BC CML or myelofibrosis patient blood or marrow were transplanted into neonatal Rag2^−/−[…]c^−/− mice or intravenously transplanted into adult NSG-S mice. Engrafted BC CML or MF mouse models were randomized into (1) vehicle control, (2) mismatch control, and (3) imetelstat treatment groups (n≥3/group). Bone marrow (BM) and spleen were collected when completing the dosing plan, and the single-cell suspension was analyzed by FACS.\nFIG. 4B. Bone marrow from each treatment group was collected for histological examination and FACS analysis. Left: Photomicrogaphs depict reticulin staining, DAPI staining, human CD45^+ expression and merged DAPI and CD45 images in bone marrow collected from no transplant, vehicle, and mismatch controls as well as from imetelstat treated myelofibrosis (MF) mouse models. Right: FACS analysis plots depicting forward scatter (FSC, y-axis) and human CD45 engraftment (x-axis) in no transplant, vehicle, and mismatch controls as well as imetelstat treated MF mouse models."}}}
{"substance": "imetelstat", "values": [{"measurement": "tolerability", "setting": "[1]", "value": "well tolerated"}, {"measurement": "TERT expression by RNA-seq", "setting": "TERT", "value": "reduction"}, {"measurement": "progenitor (CD34+CD38+Lin-) engraftment by FACS", "setting": "[2]; MF318 mouse BM, compared to control treated mice, p<0.04", "value": "lower"}, {"measurement": "human CD45+ engraftment by FACS", "setting": "[2]; MF mouse BM, compared to control treated mice, p<0.014", "value": "lower"}, {"measurement": "human CD45+ leukemic cell engraftment by confocal immunofluorescence microscopy", "setting": "[2]; bone marrow, vs vehicle and mismatch controls", "value": "lower"}, {"measurement": "splenomegaly", "setting": "[2]; compared to control treated mice", "value": "decreased splenomegaly"}, {"measurement": "proliferation of human CD45+ cells in bone marrow and spleen", "setting": "[2]; pre-LSC mouse models from 4 different MF samples, vs vehicle controls, p<0.01, t test", "value": "significant reduction"}, {"measurement": "reticulin fibrosis in bone marrow (immunohistochemistry)", "setting": "[2]; vs vehicle and mismatch controls", "value": "less reticulin fibrosis"}]}
